Results as given in the NIST ThermoML archive (doi:10.1021/je700486g).
± gives the expanded uncertainty stated by the source.

Conditions: Crystal; visual observation

Compound | Normal melting temperature [°C]
CC(=O)Oc1ccccc1C(=O)O [2-acetoxybenzoic acid] | 135.4 ± 1.1
O=C(O)c1ccccc1O [2-hydroxybenzoic acid] | 159 ± 1
O=C(O)c1ccccc1 [benzoic acid] | 122 ± 1
c1ccc2c(c1)-c1cccc3cccc-2c13 [fluoranthene] | 108.4 ± 3
